Tests used:
[1] = system: Factor VII; details: LNP siRNA systems containing the lipid; hepatocytes in vivo; cited from earlier work
[2] = system: essential genes; assay: AsCas12a tiling library pooled dropout (viability) screens; type: cell-based, human; set-up: AUC after selecting top half of guides by Seq-DeepCpf1 score: unit not given beside the values; details: for guides targeting a TTTT site observed to be active / precision recall area under curve (AUC): A375 viability data; for guides targeting a TTTT site observed to be active: activity cutoff 5th percentile of guides targeting control genes; for precision recall area under curve (AUC): essential gene guides true positives, control gene guides false positives, TTTT PAMs excluded for AsCas12a; for AUC after selecting top half of guides by Seq-DeepCpf1 score: essential and non-essential guides of the tiling screens; for guides active, all guides / guides active, quartile with the highest Seq-DeepCpf1 prediction scores: guides targeting essential genes, cutoff 5th percentile of cell surface control guides
From the text: The AsCas12a library was cloned into a modified version of lentiGuide, pRDA_052, which expresses the guide from a U6 promoter and confers puromycin resistance.

[3] = system: essential genes; assay: Mismatched guide library off-target dropout screen in A375 cells; details: cutoff 5th percentile of controls
Protocol: Cell lines stably expressing Cas12a were transduced with guides cloned into the pRDA_052 vector in two biological replicates at a low MOI (˜0.5). Transductions were performed with enough cells to achieve a representation of at least 500 cells per guide per replicate, taking into account a 30-50% transduction efficiency. Throughout the screen, cells were split at a density to maintain a representation of at least 500 cells per guide, and cell counts were taken at each passage to monitor growth. Puromycin selection was added 2 days post-transduction and was maintained for 5-7 days. After puromycin selection was complete, each replicate was divided into untreated (i.e. no drug/dropout arms) and small molecule treatment arms, each at a representation of at least 500 cells per guide.
In order to assess the off-target tolerance of AsCas12a, a library of guides intentionally mismatched to their target was constructed. […] Screens were performed in duplicate in A375 cells with dropout, vemurafenib, and 6-thioguanine arms in cells stably expressing 2×NLS-Cas12a and enCas12a.

[4] = system: MAPK1-MAPK3; assay: Synthetic lethal (SynLet) multiplexed guide pair screen; type: cell-based, human; details: MAPK1-MAPK3, OVCAR8 cells
From the text: For a construct with the ordered elements guide1, DR, guide2, it can be said that the
[formula] where m and β are a fitted slope and intercept. The residual then is the difference between the observed and expected LFCs. Filtering SynLet Libraries
To assess the effectiveness of multiplexing across numerous endogenous genes, a library targeting synthetically lethal (SynLet) gene pairs was designed. […] For As Cas12a, a second guide needed only 43 additional nucleotides. […] Furthermore, the proximity of guides in the enCas12a construct made sequencing and downstream analyses easier.
For each gene in a given pair, up to 20 guides were picked at random, 15 and 5 of which targeted TTTV and TTTT PAMs respectively (FIG. 15A). Pairs were screened in both orientations and the top three direct repeats were used. Thus, each gene pair was assessed with up to 2,400 unique constructs (20 guides×20 guides×2 orientations×3 DRs). […]
To quantitate synergies between guide pairs, an expected phenotype was first calculated by determining the average LFC of each targeting guide when it was coupled with controls (FIG. 29A), and then summing the average LFC for the two guides. […] Finally, the residual from the fit line for all constructs were calculated, where a negative residual indicates a synthetic lethal pair. […]

[5] = system: essential genes; assay: PAM identification by analysis of essential genes in a dropout screen; type: cell-based; details: cell lines A375, MelJuSo, A549, OVCAR8, and 7860
[6] = system: CD47, CD63, and B2M; assay: Triple knockout with Cas12a, flow cytometry of cell surface markers in A375 cells; type: cell-based, human; details: 6 multiplexed arrays, three timepoints, irrespective of guide position
Protocol: A375 cells stably expressing enCas12a were transduced with 6 triple knockout arrays, 3 single knockout constructs, and one empty control vector. Two days after transduction, cells were selected with puromycin ([…]), and passaged on puromycin for 7 days. Cells were visualized by flow cytometry on the BDAccuri C6 Sampler system 9, 18, and 25 days post infection. […] Flow cytometry data were analyzed using FlowJo (v10). […] Zero, single, double, and triple knockout populations were quantified using boolean gating in FlowJo.
Using these guides, 6 multiplexed arrays with all possible guide orientations were generated (FIG. 21A-21B). Three single guide constructs, and one empty vector control, and used flow cytometry were also included (FIGS. 31A-31E) to quantify the fraction of cells that were edited or not for all three markers. […] In this internally-controlled assay, EGFP labels cells without enCas12a (and thus no dsDNA breaks) and the fraction of enCas12a-positive, EGFP-negative cells over time was measured by flow cytometry (FIG. 33A). […]

[7] = system: target sites preceded by a PAM; assay: Determination of PAM (plasmid depletion in E. coli); type: cell-based; details: N is A/C/G or T
From the text: Determination of PAM can be ensured as follows This experiment closely parallels similar work in E. coli for the heterologous expression of StCas9 (Sapranauskas, R. et al. Nucleic Acids Res 39, 9275-9282 (2011)). Applicants introduce a plasmid containing both a PAM and a resistance gene into the heterologous E. coli, and then plate on the corresponding antibiotic. If there is DNA cleavage of the plasmid, Applicants observe no viable colonies.
In further detail, the assay is as follows for a DNA target. Two E. coli strains are used in this assay. One carries a plasmid that encodes the endogenous effector protein locus from the bacterial strain. The other strain carries an empty plasmid (e.g. pACYC184, control strain). All possible 7 or 8 bp PAM sequences are presented on an antibiotic resistance plasmid (pUC19 with ampicillin resistance gene). The PAM is located next to the sequence of proto-spacer 1 (the DNA target to the first spacer in the endogenous effector protein locus). Two PAM libraries were cloned. One has an 8 random bp 5′ of the proto-spacer (e.g., total of 65536 different PAM sequences=complexity). The other library has 7 random bp 3′ of the proto-spacer (e.g. total complexity is 16384 different PAMs). Both libraries were cloned to have in average 500 plasmids per possible PAM. […]

[8] = system: dystrophin; details: 48 weeks; cited from earlier work
[9] = system: target sites with TYCV/CCCC and TATV PAMs; details: in vitro and in human cells; cited from earlier work
[10] = system: genome-wide off-target sites; details: genome-wide assessment of off-target activity; cited from earlier work

1,2-dilinoleyloxy-keto-N,N-dimethyl-3-aminopropane [DLinKDMA]
potency order of gene silencing [1]: DLinKC2-DMA>DLinKDMA>DLinDMA>>DLinDAP

1×NLS-Cas12a: lx-NLS-Cas12a lentiviral expression construct; Addgene 84750 [reference compound]
guides targeting a TTTT site observed to be active [2]: 7% | precision recall area under curve (AUC) [2]: 0.61

2×NLS-Cas12a: 2×-NLS-Cas12a lentiviral expression construct
guides targeting a TTTT site observed to be active [2]: 7% | precision recall area under curve (AUC) [2]: 0.84 | AUC after selecting top half of guides by Seq-DeepCpf1 score [2]: 0.94 | guides active, all guides [2]: 47% | guides active, quartile with the highest Seq-DeepCpf1 prediction scores [2]: 92% | double mismatch guides active [3]: 9% | perfect match guides scoring as active [3]: 94% | single mismatch guides active [3]: 28%

CCCCC/C=C\C/C=C\CCCCCCCC(=O)OCC(CN(C)C)OC(=O)CCCCCCC/C=C\C/C=C\CCCCC (stereo not shown) [DLinDAP, 1,2-dilineoyl-3-dimethylammonium-propane]
potency order of gene silencing [1]: DLinKC2-DMA>DLinKDMA>DLinDMA>>DLinDAP

CCCCC/C=C\C/C=C\CCCCCCCCOCC(CN(C)C)OCCCCCCCC/C=C\C/C=C\CCCCC (stereo not shown) [DLinDMA, 1,2-dilinoleyloxy-3-N,N-dimethylaminopropane]
potency order of gene silencing [1]: DLinKC2-DMA>DLinKDMA>DLinDMA>>DLinDAP

CCCCC/C=C\C/C=C\CCCCCCCCC1(CCCCCCCC/C=C\C/C=C\CCCCC)OCC(CCN(C)C)O1 (stereo not shown) [DLinKC2-DMA, 1,2-dilinoleyl-4-(2-dimethylaminoethyl)-[1,3]-dioxolane]
potency order of gene silencing [1]: DLinKC2-DMA>DLinKDMA>DLinDMA>>DLinDAP

AsCas12a: Cas12a (Cpf1) effector used for the screens, here in multiplexed guide arrays
guide pairs scored as synthetic lethal [4]: 98% | protospacer adjacent motif (PAM) [5]: TTTV | cells showing editing at all three loci [6]: approximately 70%

AsCpf1: Acidaminococcus sp. BV3L6 Cpf1
PAM preceding the target sites that can be cleaved [7]: TTTV

Eteplirsen
dystrophin positive fibers compared to baseline (average) [8]: 47%

S542R/K548V/N552R: variant of AsCpf1 engineered with the mutations S542R/K548V/N552R
PAMs of target sites that can be cleaved [9]: TATV | DNA targeting specificity [10]: retain a high level of DNA targeting specificity

S542R/K607R: variant of AsCpf1 engineered with the mutations S542R/K607R
PAMs of target sites that can be cleaved [9]: TYCV/CCCC | DNA targeting specificity [10]: retain a high level of DNA targeting specificity

enCas12a: enCas12a lentiviral expression construct; AsCas12a comprising E174R/S542R/K548R mutations
guides targeting a TTTT site observed to be active [2]: 57% | precision recall area under curve (AUC) [2]: 0.96 | EEF2 guides targeting TTTN active ([2]; EEF2 guides of the tiling library): 62% | non-canonical tier 1 guides active, quartile with highest Seq-DeepCpf1 scores ([2]; TTTC substituted in silico for the actual PAM): 93% | AUC after selecting top half of guides by Seq-DeepCpf1 score [2]: 0.97 | guides active, all guides [2]: 80% | guides active, quartile with the highest Seq-DeepCpf1 prediction scores [2]: 94% | EEF2 guides targeting the other tier 1 PAMs active ([2]; non-canonical (non-TTTN) PAMs): 68% | double mismatch guides active [3]: 16% | perfect match guides scoring as active [3]: 91% | single mismatch guides active [3]: 54%
